From EP4501917A1, “3,4-DIHYDROQUINOXALINE-2-CARBOXIMIDE DERIVATIVE COMPOUND AND PHARMACEUTICAL COMPOSITION COMPRISING SAME FOR PREVENTING OR TREATING CANCER DISEASE” (Daegu-Gyeongbuk Medical Innovation Foundation, priority 2022, dated 2023)

Assays:
[1] = test system: PC-3 prostate cancer cells; assay: Prostate cancer cell growth inhibition, CCK-8 assay; format: cell-based, human; conditions: PC-3 cells, result in words
Method: PC-3, a human-derived prostate cancer cell line, was cultured with RPMI1640 (10% fetal bovine serum, 1% Penicillin Streptomycin) culture medium at 37°C, 5% CO2 condition. All cells in the experiment were subcultured when they reached a confluency of approximately 80% to 90%, and only cells that had not passed 20 passages were used.
After culturing, 10 µL CCK-8 reagent was added and the absorbance was measured after 1 hour. The absorbance was measured at 450 nm using a microplate reader [BMG Labtech (Offenburg, Germany)].

[2] = Body weight during drug administration, prostate cancer model; format: in vivo, nude mice; conditions: 50 mg/kg, during the drug administration period, PC-3 model, FIG. 5; result in words
Method: A prostate cancer model was established by subcutaneously transplanting PC-3 cell lines into nude mice, and the mice were divided into two groups (group 1: vehicle administration group (10% DSMO, 30% PEG400, 60% DW), group 2: 50 mg/kg Example 27 compound administration group). The drug was administered orally once a day for 12 times. To evaluate the therapeutic efficacy, tumors were […] before drug administration and on days 3, 6, 8, 10, 12, and 14 after drug administration, and tumor volumes were measured. Tumor volume (mm^3) was calculated as follows (tumor volume (mm^3) = (A X B^2)/2, where A = tumor long axis, B = tumor short axis), and the results are shown in FIG. 2.

Huh-7 cell lines = assay: Liver cancer model, Huh-7 cell lines subcutaneously transplanted, tumor volume and weight; format: in vivo, nude mice; conditions: result in words
Method: (§1) In addition, a liver cancer model was established by subcutaneously transplanting Huh-7 cell lines into nude mice. After establishing the liver cancer model, the mice were divided into two groups (group 1: vehicle administration group, group 2: 50 mg/kg Example 27 compound administration group). The drug was administered once a day for 12 times. To evaluate therapeutic efficacy, tumor volume was measured before drug administration and on days 4, 7, 10, 13, and 15 after drug administration. Tumor volume (mm^3) was calculated as follows (tumor volume (mm^3) = (A X B^2)/2, where A = tumor long axis, B = tumor short axis). Body weight was measured before administration and on days 4, 7, 10, 13, and 15 after drug administration during the drug administration period. Tumor was excised on day 15 after drug treatment and body weight was measured.

[3] = Body weight during drug administration, liver cancer model; format: in vivo, nude mice; conditions: 50 mg/kg, during the drug administration period, Huh-7 model, FIG. 7D; result in words
Method: as §1

Cc1cc2nc(C(=O)NCCc3c[nH]c4ccc(O)cc34)c(=O)n(C[C@H](O)[C@H](O)[C@H](O)CO)c2cc1C [Example 27, N-(2-(5-hydroxy-1H-indol-3-yl)ethyl)-6,7-dimethyl-3-oxo-4-((2S,3S,4R)-2,3,4,5-tetrahydroxypentyl)-3,4-dihydroquinoxaline-2-carboxamide]
cancer cell viability inhibition rate ([1]; compared with PCI-34051, FIG. 1): superior to that of PCI-34051
cell viability ([1]; various concentrations, 24 hours and 48 hours, FIG. 1): effectively reduced the viability of prostate cancer cells in a concentration- and time-dependent manner
body weight of the mice [2]: no rapid weight loss was confirmed
tumor volume (Huh-7 cell lines; 50 mg/kg once a day for 12 times, until day 15, **p<0.005 compared with vehicle, FIG. 7A): tumor growth inhibitory effect
tumor weight (Huh-7 cell lines; 50 mg/kg, tumor removed on day 15, ***p<0.0005 compared with vehicle, FIGS. 7B and 7C): tumor weight of the vehicle group was significantly higher
body weight [3]: No rapid weight loss was observed
